Measured values published in patent publication US6780971B2, “Compositions for inhibiting the aggregation pathway of α-synuclein” (Panacea Pharmaceuticals, Inc., priority 2000, dated 2004).
“Also recorded” adds a separate entry of the source.

How the values were obtained:
α-synuclein = target: T1, α-synuclein (Homo sapiens, UniProt P37840); assay: Tyrosine fluorescence assay of metal binding to α-synuclein; conditions: magnesium co-incubated with iron
T1 construct: His-6 (cleaved yes); made in house; host or cells: bacteria (IPTG-induced; Pro-Ex His 6 vector)
Experimental: Because iron binds to other proteins that form aggregates and iron is known to accumulate in Parkinson's disease, iron might bind directly to α-synuclein. To confirm this hypothesis, the interaction of iron with α-synuclein was tested using tyrosine fluorescence as an indicator of iron binding. […] Fluorescence of tyrosine has been used to monitor binding of metals to β-amyloid [Garzon-Rodriguez W. et al., Bioorg. Med. Chem. Let., 9:2243-2248 (1999), which is hereby incorporated by reference]. A similar approach was taken to analyze binding of iron to α-synuclein. Tyrosine has a fluorescence emission spectrum that has a peak emission of 310 nm when excited at 280 nm, respectively (FIG. 2A). It was observed that binding of iron reduced the fluorescence of the tyrosines in α-synuclein. […] The Hill coefficient was 1.0 (R^2=1.0, P<0.0001), indicating one binding site for iron with no cooperativity (FIGS. 2A & B). α-Synuclein was also tested for binding to other metals, including CuCl2, ZnCl2 and MgCl2. Because the C-terminus of α-synuclein has a region with 7 glutamates and 4 aspartates, which together could chelate iron, we created a deletion construct lacking the last 27 amino acids on α-synuclein and analyzed binding of this construct.
To monitor the binding profiles of Fe(II) and Mg(II) to α-synuclein in vitro we used changes of tyrosine fluorescence. Tyrosine fluorescence is used as an indicator of changes in protein conformation or binding of metals. Excitation of tyrosine at 280 nm elicits fluorescence that peaks at 310 nm for monomeric tyrosine, and at 350-400 nm for tyrosinate or dimeric tyrosine. The fluorescence spectrum of α-synuclein yielded fluorescence peaks at 310 and 400 nm. The peak at 400 nm cannot be explained by the presence of dimeric tyrosine, due to dimerization of α-synuclein, because dimerization of α-synuclein decreases the fluorescence at 400 nm, and tends to eliminate the peak at 400 nm.

A53T α-synuclein [1] = target: T2, A53T α-synuclein (Homo sapiens, UniProt P37840, A53T); assay: Iron-induced aggregation of recombinant A53T α-synuclein (immunoblot, video densitometry); format: biochemical; conditions: 0-3 mM FeCl2, 100 μM MgCl2, 24 hrs
T2 construct: His-6 (cleaved yes); made in house; host or cells: bacteria (IPTG-induced; Pro-Ex His 6 vector)
Experimental: We incubated recombinant A53T α-synuclein with 0-3 mM FeCl2 and 0 or 100 μM MgCl2 for 24 hrs, then immunoblotted the α-synuclein and quantified aggregation by video densitometry.

[2] = target: T3, wildtype recombinant α-synuclein (Homo sapiens, UniProt P37840); assay: Aggregation of recombinant wildtype α-synuclein (immunoblot, video densitometry, thioflavine-S); format: biochemical
T3 construct: His-6 (cleaved yes); made in house; host or cells: bacteria (IPTG-induced; Pro-Ex His 6 vector)
Experimental: Knowing that magnesium and iron induce opposing changes in α-synuclein tyrosine fluorescence, it is believed that binding of magnesium might convert α-synuclein to a conformation that resists aggregation perhaps by preventing β-pleated sheet formation. To test this, wildtype recombinant α-synuclein was incubated with 0-3 mM FeCl2 and 0 or 100 μM MgCl2 for 24 hrs at 37° C., then immunoblotting was performed for α-synuclein and quantified aggregation by video densitometry.

A53T α-synuclein [3] = target: T2, A53T α-synuclein; assay: Tyrosine fluorescence assay of metal binding to A53T α-synuclein
From the text: We also examined how the A53T mutation in human α-synuclein affected binding of iron and magnesium. […] Previous studies have shown that A53T mutation changes the conformation of α-synuclein by increasing its helical content (Polymeropoulos et al., Science, 276:2045-7(1997)). These conformational changes might also reduce binding of magnesium to α-synuclein.

[4] = test system: BE-M17 neuroblastoma cells; assay: Neuroprotection against FeCl2 plus dopamine, MTT assay; conditions: 0.8 mM MgCl2, 2 days
Experimental: MTT and LDH toxicity assay: Cells were plated in 96 well dishes at 5000 cells/well in 100 μl growth medium. For the MTT assay, viability following 48 hrs of pharmacological treatment was analyzed by adding 0.5 mg/ml MTT (MTT, 3-[4,5-dimethylthiazol-2-yl]-2,5-diphenyltetrazolium bromide) and incubating at 37° C. for 3 hrs. Lysis buffer (100 μl of 20% SDS in 50% N, N-dimethylformamide) was then added and the plates are read at 540 nm after 24 hrs. For the lactate dehydrogenase (LDH) assay, viability following 24 hrs of pharmacological treatment was analyzed using MTS reagent and the Cytox 96 kit (Promega) according to manufacturer's directions.

[5] = test system: primary cultures of cortical neurons; assay: Neuronal process length and inclusions in primary cultures of cortical neurons; format: cell-based, rat; conditions: 0.3 mM FeCl2 plus 50 μM dopamine plus 1-2 mM magnesium, 3 days
Experimental: How magnesium affected neurons from the central nervous system was also examined. Primary cultures of cortical neurons were treated with 0.3 mM FeCl2 plus 50 μM dopamine plus 0-2 mM MgCl2 for 3 days (a relatively low dose of iron was used to enable quantitation of neuronal processes). To quantify the amount of neuroprotection provided by magnesium, the percent of processes longer than 100 μm as a characteristic of cell viability was determined. […] Inclusions also formed in these neurons.

primary cortical neurons [6] = assay: Ubiquitin-positive α-synuclein aggregates in primary cortical neurons (immunoprecipitation, anti-ubiquitin immunoblot); format: cell-based, rat; conditions: 0.3 mM iron and 50 μM dopamine, 3 days
Experimental: The inventors also examined the amount of aggregates present using an antibody to ubiquitin. As set forth previously, the accumulation of high molecular weight ubiquitin adducts correlates with the formation of α-synuclein aggregates. Primary cortical neurons were treated as described above and the aggregates were immunoprecipitated with anti-α-synuclein antibody and immunoblotted with anti-ubiquitin antibody. An increase in ubiquitination of α-synuclein upon treatment with 0.3 mM iron and 50 μM dopamine for 3 days was observed. However, treating the cells with magnesium produced a statistically significant decrease in ubiquitin immunoreactivity with doses as low as 0.5 mM (n=3, P<0.0001). Thus, magnesium inhibits formation of ubiquitin positive α-synuclein aggregates in primary neurons.

[7] = test system: BE-M17 cells expressing the human A53T α-synuclein cDNA; assay: Aggregate formation in BE-M17 cells expressing A53T α-synuclein; format: cell-based
[8] = test system: BE-M17 neuroblastoma cells over-expressing wild type α-synuclein; assay: α-Synuclein aggregation and inclusions in BE-M17 cells over-expressing wild type α-synuclein; format: cell-based, human; conditions: 1 mM FeCl2 plus 50 μM dopamine plus 1 mM MgCl2, 3 days
Experimental: Immunohistochemistry: For light microscopy, cells are fixed with 4% paraformaldehyde, washed, permeabilized by incubation for 30 min with 0.2% Triton-X 100, blocked with 5% dry milk/1 % goat serum/PBS, washed and then incubated overnight in 1° antibody (1:500). Development is with an ABC kit and 3′, 3′-diaminobenzidine as per manufacturer's directions (Vector, Burlingame, Calif.).
(§1) To test this, the inventors examined the ability of magnesium to inhibit α-synuclein aggregation in primary cortical neurons grown in cell culture. Primary cortical neurons were treated with 1 mM FeCl2 plus 0-1.5 mM MgCl2 for 3 days, the α-synuclein was immunublotted and the amount of aggregate determined by video densitometry. […] Doses as low as 0.5 mM of magnesium produced statistically significant reduction in formation of α-synuclein positive aggregates.
Next, whether magnesium also prevents formation of α-synuclein-positive inclusions in BE-M17 neurons stably over-expressing wildtype α-synuclein was investigated. The neurons were treated with 1 mM FeCl2 plus 50 μM dopamine plus 0 or 1 mM MgCl2 for 3 days, and then examined by immunocytochemistry using anti-α-synuclein and anti-ubiquitin antibodies.

primary cortical neurons [9] = assay: α-Synuclein aggregation in primary cortical neurons (immunoblot, video densitometry); format: cell-based, rat
Experimental: Immunoblotting: Cells were harvested with SDS lysis solution (2% SDS, 10 mM Tris, pH 7.4, 2 mM β-glycerol phosphate, 1 μM AEBSF). The amount of protein was determined using the BCA assay (Pierce), […] per lane was run on 14% SDS polyacrylamide gels and transferred to nitrocellulose (200 mAmp, 12 hrs). The nitrocellulose was then incubated 1 hr in 5% milk/PBS, washed, incubated overnight in 1° antibody, washed, then incubated 3 hrs in peroxidase coupled 2° antibody and developed with chemiluminescent reagent (NEN).
as §1

[Cl-].[Cl-].[Mg+2] [magnesium, MgCl2]
effect of co-incubation on iron-induced quenching of tyrosine fluorescence (α-synuclein): did not prevent iron-induced quenching
iron-induced aggregation of A53T α-synuclein (A53T α-synuclein [1]): unable to inhibit iron-induced aggregation
iron-induced formation of high molecular weight aggregates of α-synuclein ([2]; 0-3 mM FeCl2, 100 μM (0.1 mM) MgCl2, 24 hrs, 37° C.): striking reduction in formation of high molecular weight aggregates; also recorded: inhibits iron-induced aggregation
spontaneous aggregation of α-synuclein ([2]; separate experiments, no iron): inhibited spontaneous aggregation
magnesium required to inhibit α-synuclein aggregation in vitro ([2]; stated as MgSO4 clinical range): 0.5 to 2 mM
effect of A53T mutation on binding to α-synuclein (A53T α-synuclein [3]): abolish the interaction
increase in cell survival versus Fe2+/dopamine alone ([4]; control (vector) cell line): 1.3 fold
increase in cell survival versus Fe2+/dopamine alone ([4]; wildtype α-synuclein cell line): 2.4 fold
formation of α-synuclein-positive inclusions [5]: did not exhibit any formation of α-synuclein-positive inclusions
loss of neuronal processes over 100 μm [5]: 20%
lowest dose producing statistically significant decrease in ubiquitin immunoreactivity (primary cortical neurons [6]): 0.5 mM
aggregate formation [7]: unable to inhibit aggregate formation
α-synuclein-positive inclusions (immunocytochemistry) [8]: little accumulation of α-synuclein-positive inclusions
lowest dose producing statistically significant reduction of α-synuclein positive aggregates (primary cortical neurons [9]; 1 mM FeCl2, 3 days): 0.5 mM
formation of high molecular weight α-synuclein aggregates (primary cortical neurons [9]; 1 mM FeCl2, magnesium 0.2 to 1.5 mM, 3 days): dose-dependent reduction
